Where two headings read alike, the source gives them in different places.
Experiments:
[1] = tested on: radiation-induced dermatitis on backs of rats; assay: Radiation-induced dermatitis in rat skin model; type: in vivo; conditions: for protective activity against radiation-induced dermatitis: 370 mM, vehicle 50:30:20, scored 13 days later
Procedure: To determine efficacy of chemoprotective polyamines in preventing radiation-induced dermatitis, adult rats were topically treated with the compounds before and after radiation treatment. Rats were exposed to medically relevant levels of radiation that could induce clinical radiation dermatitis. Sprague Dawley rats (Harlan Spraque Dawley) at 4-6 weeks-old were anesthetized with sodium pentobarbital at 40 mg/kg body weight (Sigma, St. Louis, Mo.) prior to radiation exposure. A defined area (1.5×2 cm) on the backs of rats was irradiated using a Mark I, Model 30, Cs 137 irradiator (J. L. Sheppard & Associates). Before topical drug treatment or irradiation, the backs of the rats were clipped using an Oster clipper at the closest setting. The rest of the body was protected from radiation exposure using a lead shield (2.5 cm thick). A dose response study was initially performed to reproduce relevant dermatitis that matched the Grade (I-IV) scale used to score the severity of radiation-induced dermatitis in humans. The severity of the dermatitis was scored 12-13 days post-irradiation at the peak of the dermal inflammation. […] Radiation dermatitis of Grade II-III was considered most clinically relevant, so a radiation dose of 8.7 Gy was typically used in the rats. The clipped back region on the rats was treated topically with aminothiol in delivery vehicle four times in the two hours immediately preceding irradiation (at −2 hr, −1 hr, −30 min, and −10 min; irradiation was at 0 min
The polyamines or amino thiols were prepared in a delivery vehicle, consisting of ethanol:propylene glycol:water, ranging from 0:95:5 to 50:30:20 depending upon the solubility characteristics of the topical molecule, and the degree of dermal penetration desired. A vehicle composed of an emulsion formed by sonication of ‘nonionic liposomes’ and isopropyl myristate was also used (Jayaraman, S. et al., J. Pharm. Sci. 85:1082-1084, 1996). In a commonly used protocol, 220 μl of topical drug/vehicle was applied to an area ˜2 cm×3 cm on the back in the 2 hr just prior to irradiation. Rats treated with only the delivery vehicle served as controls. Twelve to thirteen days post-radiation, the rats were evaluated for dermatitis within the irradiated area. In early studies, a modified scoring scale described by Masuda K. et al., Int. J. Radiation Oncol. Biol. Phys: 12, 1645 (1986) was used, and in later studies, including those described here, a simplified scoring system was used in which the percentage of the irradiated, rectangular field covered with scrab material was estimated between 0 and 100% to provide scores on a scale between 0 and 100.
This example relates to the use of a rat skin model to evaluate the efficacy of two amino thiol compounds in preventing radiation-induced dermatitis. To test whether topically-applied aminothiols could prevent the radiodermatitis caused by external beam radiotherapy, the rodent model described in Example 3 was slightly modified. Briefly, the radiodermatitis model involved: • i) shaving the backs of 6-7 week old rats or mice; • ii) applying four topical doses of aminothiol in a delivery vehicle composed of ethanol:propylene glycol (PG):water in the 2 hr prior to irradiation; • iii) irradiating a small, 3 cm^2 (1.5×2 cm) area on the animal's back (through a window in a lead plate) with 8.7 Gy of γ radiation from a Cs^137 source; and • iv) scoring the severity of the dermatitis 12-13 days later, at the peak of the inflammatory skin reaction. Radiodermatitis severity was scored by estimating the percentage of the irradiated field that was covered by scrab material.
Methods: Treatments were applied as described in Example 6.

[2] = tested on: primary, diploid fibroblasts isolated from human skin; assay: Growth inhibition of primary diploid human skin fibroblasts; type: cell-based; conditions: 50% inhibition of human skin fibroblast growth
Procedure: The in vitro growth inhibitory effects of certain of the chemoprotective polyamines of the invention were measured using primary, diploid fibroblasts isolated from human skin.

DNA = DNA binding/precipitation from solution
Excerpt: The chemoprotective polyamines provided herein are also able to bind, denature and precipitate DNA from solution. As the skilled artisan will appreciate, as the concentration of polyamine is increased, there is a point where polyamine binding to helical B-DNA induces single-stranded ‘bubbles’ and conversion to other forms of DNA structure, such as Z-DNA (Feuerstein, B. et al., Nuc. Acids Res. 17:6883-6892, 1989; Basu, H. and Marton, L., Biochem. J. 244:243-246, 1987), as well as precipitating the DNA from solution.

[3] = tested on: p21 protein in 23SK human skin cells; assay: p21 induction by western analysis; type: cell-based; conditions: 23SK cells, 30 hr exposure
Procedure: FIGS. 3A and 3B illustrate the level of induced p21 protein seen in diploid human fibroblasts after a 30 hr exposure to each of the indicated chemoprotective polyamines. […] In these experiments, the 23SK human skin cells were exposed for 30 hr to an “IC80” dose of each of the indicated chemoprotective polyamines and then lysed. Cell extracts were then prepared in order to measure p21 levels by western analysis (FIG. 3A).
FIG. 3 illustrates that chemoprotective polyamines are able to induce expression of the negative cell cycle regulatory protein, p21, after exposing the human skin cells to the polyamine molecules. […] In these experiments, the 23SK human skin cells were exposed for 30 hr to an “IC80” dose of each of the indicated chemoprotective polyamines and then lysed. Cell extracts were then prepared in order to measure p21 levels by western analysis (FIG. 3A). Although the ability of modified polyamines to induce p21 is known in the literature (Kramer, D. et al., Cancer Res. 59:1278-1286, 1999), it is a novel aspect of this invention that those chemoprotective polyamines with longer aliphatic “arms” were better able to induce expression of p21 as shown in FIG. 4.

23SK skin cells = assay: Flow cytometry cell cycle distribution; type: cell-based, human
Excerpt: FIGS. 5A-5D are cell histograms showing the results from flow cytometry analysis of chemoprotective polyamine-treated 23SK skin cells.
In FIG. 5, cell histograms showing the results from flow cytometry analysis of chemoprotective polyamine-treated 23SK skin cells are shown. […] The transient nature of the cell cycle block induced by chemoprotective polyamines is believed to be an important aspect of their efficacy, i.e., their ability to block cell cycle progression in stem cells during the course of chemo- or radiotherapy, and the resumption of normal stem cell division after a given cancer therapy course has been completed.

cell cycle = conditions: Jeitner and Renton 1996; Snyder and Grdina 2000; Kramer et al. 1997; cited from earlier work
[4] = Expt. 1, read-out: IC50 (uM), Expt. 1
[5] = Expt. 2, read-out: IC50 (uM), Expt. 2
[6] = Expt. 1, read-out: DNA Bind/ppt. IC50 (uM), Expt. 1
[7] = Expt. 2, read-out: DNA Bind/ppt. IC50 (uM), Expt. 2

SMILES	IC50 (DNA; [6])	IC50 [2, 4]	IC50 [2, 5]	p21 fold-induction at IC80 Dose [3]	Cell Cycle Distribution At IC80 Dose (%) G1 (23SK skin cells)	Cell Cycle Distribution At IC80 Dose (%) G2/M (23SK skin cells)	Cell Cycle Distribution At IC80 Dose (%) S (23SK skin cells)	further results
CC(C)S [Mechanism Structure 1, reference compound]								protective activity against radiation-induced dermatitis ([1]; 8.7 Gy): neither molecule exhibited discernable protective activity
CNCCCNC [Mechanism Structure 2, reference compound]								protective activity against radiation-induced dermatitis ([1]; 8.7 Gy): neither molecule exhibited discernable protective activity
CCNCCCCNCCCCNCC=C(CO)CNCCCCNCCCCNCC [PrC-118]		78 µM						
CCNCCCCNCCCCNCCCCNCC=C(CNCC)CNCCCCNCCCCNCCCCNCC [PrC-112]	93 µM	2.53 µM		2.45 fold	61%	16%	23%	
NCC(CN)CS [PrC-211, 3-amino-2-aminomethyl-propane-1-thiol]								Dermatitis Score (% of irradiated field free of scab material) ([1]; 1400 mM PrC-211, vehicle 0:95:5 (ditto mark), cage 488): 60 ± 12%; concentration of topical aminothiol alone conferring complete protection against radiodermatitis ([1]; aminothiol alone, without epinephrine, 8.7 Gy): ~2200 mM
CCNCCCCNC/C=C(/CS)CNCCCCNCC [PrC-114]	94 µM	850 µM	240 µM					
CCNCCCCNCCCCNCCCCNCCCCNCC=C(CNCC)CNCCCCNCCCCNCCCCNCCCCNCC [PrC-113]	35 µM	0.33 µM	0.21 µM	3.21 fold	77%	14%	8%	
CCNCCCNCCCNCCCNCC [DENSPM]								cell cycle arrest reported in literature (cell cycle): G1-specific cell cycle block that was reversible
CN[C@H]1CCc2cc(OC)c(OC)c(OC)c2-c2ccc(OC)c(=O)cc21 [Colcemid, reference compound]				3.31 fold	8%	81%	11%	
CCNCCCCNCCCCNCC=C(CNCC)CNCCCCNCCCCNCC [PrC-111]	88 µM	980 µM	180 µM	2.22 fold	60%	14%	25%	

Now from value to compound, other results behind:

IC50 (DNA; [6])	SMILES	IC50 [2, 4]	IC50 [2, 5]	p21 fold-induction at IC80 Dose [3]	Cell Cycle Distribution At IC80 Dose (%) G1 (23SK skin cells)	Cell Cycle Distribution At IC80 Dose (%) G2/M (23SK skin cells)	Cell Cycle Distribution At IC80 Dose (%) S (23SK skin cells)	further results
58 µM	CCNCCCCNCCCCNCCCCNCCCCNC/C=C(/CS)CNCCCCNCCCCNCCCCNCCCCNCC [PrC-117]	0.32 µM	0.24 µM	~3.0 fold	86%	3%	11%	IC50 (DNA; [7]): 57 µM; distribution within cell cycle compartments after drug removal (23SK skin cells; 72 hr treatment, then 48 hr in drug-free medium (FIG. 5D)): basically returned to that seen in cells previously untreated; cells in G1 compartment (23SK skin cells; treated 72 hr (FIG. 5C)): 86.23%; cells in S+G2 compartments (23SK skin cells; treated 72 hr (FIG. 5C)): 13.77%
82 µM	CCNCCCCNCCCCNCCCCNC/C=C(/CS)CNCCCCNCCCCNCCCCNCC [PrC-116]	5.8 µM		2.32 fold	66%	23%	11%	IC50 (DNA; [7]): 63 µM
89 µM	CCNCCCCNCCCCNCC=C(CNC)CNCCCCNCCCCNCC [PrC-119]	470 µM	202 µM	1.80 fold				
37 µM	CCNCCCCNCCCCNC/C=C(/CS)CNCCCCNCCCCNCC [PrC-115]	4100 µM	1090 µM					IC50 (DNA; [7]): 83 µM
2600 µM	NCCCNCCCCNCCCN [Spermine, spermine, reference compound]							IC50 for DNA binding/precipitation relative to most chemoprotective polyamines (DNA; spermine versus chemoprotective polyamines of Table 2): ~1,000 fold
131 µM	CCNCCCCNCCCCNCCCCNCC=C(CS)CNCCCCNCCCCNCCCCNCC [PrC-123]			2.22 fold	68%	21%	10%	IC50 (DNA; [7]): 117 µM
